# Like-named read-outs stand apart in the source and are kept apart here. Numbered stars: 1 amine (or outer) side, 2 acyl side, 3 side chain; on linkers, the order of the positions; unused ones are H or OH. Bridge positions count the residues as written; N and C are the ends. Square brackets hold non-standard residues; d marks the D form. Peptide text beside a SMILES is read from it. X4 = O=C([C@@H](Cc1c([*:3])[nH]c2ccc(O)cc12)N[*:1])[*:2]; X2 = O=C([C@@H](Cc1c([*:3])[nH]c2ccccc12)N[*:1])[*:2]; Ile(4R-OH,5-OH) = C[C@H]([C@H](N)C(=O)O)[C@@H](O)CO; X5 = C[C@@H](S[*:3])[C@H](N[*:1])C(=O)[*:2]; X1 = C[C@H](S[*:3])[C@H](N[*:1])C(=O)[*:2]; X3 = CS[C@H](C)[C@H](N[*:1])C(=O)[*:2]; Gly(cPent) = N[C@H](C(=O)O)C1CCCC1; Nva(3-Et) = CCC(CC)[C@H](N)C(=O)O; Hyp = O=C(O)[C@@H]1C[C@@H](O)CN1; Pen = CC(C)(S)[C@H](N)C(=O)O
# Key:
# Pol II = Pol II (Homo sapiens, UniProt P24928); assay: biochemical; format: biochemical
# white mice = settings: mouse, in vivo; cited from earlier work
# calf thymus RNAP II = calf thymus RNAP II (Bos taurus, UniProt G3MZY8); settings: cited from earlier work
# SK-BR-3 cells = format: cell-based; settings: read-out: IC50, cell viability on SK-BR-3 cells
Molecule,IC50 (CHO cells),IC50 (HEK293 cells),LD50 (white mice),other results
"CC[C@H](C)[C@@H]1NC(=O)CNC(=O)[C@H]2Cc3c([nH]c4ccccc34)S[C@@H](C)[C@H](NC(=O)CNC1=O)C(=O)N[C@@H](CC(N)=O)C(=O)N1C[C@H](O)C[C@H]1C(=O)N[C@@H]([C@@H](C)[C@@H](O)CO)C(=O)N2 [Compound I(i), (2R,3S)-β-Methyl-Cys^8-Dideoxyamanitin] (cyclo(GIG[X1]N[Hyp][Ile(4R-OH,5-OH)][X2]); thioether 4-8)",610 ± 170 nM,240 ± 50 nM,,
"CC[C@H](C)[C@@H]1NC(=O)CNC(=O)[C@H]2Cc3c([nH]c4ccccc34)S[C@H](C)[C@H](NC(=O)CNC1=O)C(=O)N[C@@H](CC(N)=O)C(=O)N1C[C@H](O)C[C@H]1C(=O)N[C@@H]([C@@H](C)[C@@H](O)CO)C(=O)N2 [Compound I(ii), (2R,3R)-β-Methyl-Cys^8-Dideoxyamanitin] (cyclo(GIG[X5]N[Hyp][Ile(4R-OH,5-OH)][X2]); thioether 4-8)",> 15000 nM,,,Ki (Pol II): > 1000 nM
"CC[C@H](C)[C@@H]1NC(=O)CNC(=O)[C@H]2Cc3c([nH]c4ccccc34)SC(C)(C)[C@H](NC(=O)CNC1=O)C(=O)N[C@@H](CC(N)=O)C(=O)N1C[C@H](O)C[C@H]1C(=O)N[C@@H]([C@@H](C)[C@@H](O)CO)C(=O)N2 [Compound I(iii), Pen^8-Dideoxyamanitin] (cyclo(GIG[Pen]N[Hyp][Ile(4R-OH,5-OH)][X2]); thioether 4-8)",2700 ± 590 nM,,,"cytotoxicity compared with α-amanitin, in words (CHO cells): intermediately toxic"
"CC[C@H](C)[C@@H]1NC(=O)CNC(=O)[C@H]2Cc3c([nH]c4ccccc34)SC[C@H](NC(=O)CNC1=O)C(=O)N[C@@H](CC(N)=O)C(=O)N1C[C@H](O)C[C@H]1C(=O)N[C@@H]([C@@H](C)[C@@H](O)CO)C(=O)N2 [Compound I(iv), aza-Gly^7-Dideoxyamanitin] (cyclo(CN[Hyp][Ile(4R-OH,5-OH)][X2]GIG); thioether 1-5)",170 ± 30 nM,260 ± 70 nM,,"IC50 (HepG2 cells): 5600 ± 780 nM; IC50 (HeLa cells): 3300 ± 390 nM; cytotoxicity, in words (HeLa cells): increased cytotoxicity; cytotoxicity, in words (HEK293 cells): increased cytotoxicity"
"CC[C@H](C)[C@@H]1NC(=O)CNC(=O)[C@H]2Cc3c([nH]c4ccccc34)SC[C@H](NC(=O)CNC1=O)C(=O)N[C@@H](CC(N)=O)C(=O)N1C[C@H](O)C[C@H]1C(=O)N[C@@H]([C@@H](C)[C@@H](O)CO)C(=O)N2 [Compound I(ix), aza-Gly^5-Dideoxyamanitin] (cyclo(CN[Hyp][Ile(4R-OH,5-OH)][X2]GIG); thioether 1-5)",1900 ± 520 nM,210 ± 50 nM,,"cytotoxicity compared with α-amanitin, in words (CHO cells): only a two-fold reduction in cytotoxicity"
"CS[C@H](C)[C@@H]1NC(=O)CNC(=O)[C@H]2Cc3c([nH]c4ccccc34)SC[C@H](NC(=O)CNC1=O)C(=O)N[C@@H](CC(N)=O)C(=O)N1C[C@H](O)C[C@H]1C(=O)N[C@@H]([C@@H](C)[C@@H](O)CO)C(=O)N2 [Compound I(v), Thia-Ile^6-Dideoxyamanitin] (cyclo(CN[Hyp][Ile(4R-OH,5-OH)][X2]G[X3]G); thioether 1-5)",4400 ± 730 nM,830 ± 150 nM,,"IC50 (HepG2 cells): > 20000 nM; IC50 (HeLa cells): 16000 ± 2300 nM; Pol II / transcription inhibition, in words (Pol II): high Pol II inhibition"
"CO[C@H](C)[C@@H]1NC(=O)CNC(=O)[C@H]2Cc3c([nH]c4ccccc34)SC[C@H](NC(=O)CNC1=O)C(=O)N[C@@H](CC(N)=O)C(=O)N1C[C@H](O)C[C@H]1C(=O)N[C@@H]([C@@H](C)[C@@H](O)CO)C(=O)N2 [Compound I(vi), Oxo-Ile^6-Dideoxyamanitin] (cyclo(CN[Hyp][Ile(4R-OH,5-OH)][X2]GT(Me)G); thioether 1-5)",> 15000 nM,,,"cytotoxicity compared with α-amanitin, in words (CHO cells): no observable cytotoxicity"
"CCC(CC)[C@@H]1NC(=O)CNC(=O)[C@H]2Cc3c([nH]c4ccccc34)SC[C@H](NC(=O)CNC1=O)C(=O)N[C@@H](CC(N)=O)C(=O)N1C[C@H](O)C[C@H]1C(=O)N[C@@H]([C@@H](C)[C@@H](O)CO)C(=O)N2 [Compound I(vii), Diethylala^6-Dideoxyamanitin] (cyclo(CN[Hyp][Ile(4R-OH,5-OH)][X2]G[Nva(3-Et)]G); thioether 1-5)",380 ± 110 nM,170 ± 30 nM,,
"C[C@H]([C@@H]1NC(=O)[C@@H]2C[C@@H](O)CN2C(=O)[C@H](CC(N)=O)NC(=O)[C@@H]2CSc3[nH]c4ccccc4c3C[C@@H](NC1=O)C(=O)NCC(=O)N[C@@H](C1CCCC1)C(=O)NCC(=O)N2)[C@@H](O)CO [Compound I(viii), Cyclopentylgly^6-Dideoxyamanitin] (cyclo(CN[Hyp][Ile(4R-OH,5-OH)][X2]G[Gly(cPent)]G); thioether 1-5)",1700 ± 270 nM,,,"cytotoxicity compared with α-amanitin, in words (CHO cells): considerably diminished toxicity"
"CCC(CC)[C@@H]1NC(=O)CNC(=O)[C@H]2Cc3c([nH]c4ccc(O)cc34)SC[C@H](NC(=O)CNC1=O)C(=O)N[C@@H](CC(N)=O)C(=O)N1C[C@H](O)C[C@H]1C(=O)N[C@@H]([C@@H](C)[C@@H](O)CO)C(=O)N2 [Compound I(xi), 5-OH Trp^4, Diethylala^6-Deoxyamanitin] (cyclo(CN[Hyp][Ile(4R-OH,5-OH)][X4]G[Nva(3-Et)]G); thioether 1-5)",1200 ± 330 nM,80 ± 10 nM,,
"CCC(CC)[C@@H]1NC(=O)CNC(=O)[C@H]2Cc3c([nH]c4ccccc34)S[C@@H](C)[C@H](NC(=O)CNC1=O)C(=O)N[C@@H](CC(N)=O)C(=O)N1C[C@H](O)C[C@H]1C(=O)N[C@@H]([C@@H](C)[C@@H](O)CO)C(=O)N2 [Compound I(xii), Diethylala^6, (2R,3S)-β-Methyl-Cys^8-Dideoxyamanitin] (cyclo(G[Nva(3-Et)]G[X1]N[Hyp][Ile(4R-OH,5-OH)][X2]); thioether 4-8)",290 ± 70 nM,110 ± 30 nM,,"IC50 (HepG2 cells): 5700 ± 1100 nM; toxicity relative to α-amanitin (times / -fold as toxic) (CHO cells): 2; IC50 (HeLa cells): 2400 ± 300 nM; cytotoxicity, in words (HeLa cells): increased cytotoxicity; cytotoxicity, in words (HEK293 cells): increased cytotoxicity; toxicity relative to α-amanitin (times / -fold as toxic) (HEK293 cells): 5"
"CCC(CC)[C@@H]1NC(=O)CNC(=O)[C@H]2Cc3c([nH]c4ccc(O)cc34)S[C@@H](C)[C@H](NC(=O)CNC1=O)C(=O)N[C@@H](CC(N)=O)C(=O)N1C[C@H](O)C[C@H]1C(=O)N[C@@H]([C@@H](C)[C@@H](O)CO)C(=O)N2 [Compound I(xiii), 5-OH Trp^4, Diethylala^6, (2R,3S)-β-Methyl-Cys^8-Deoxyamanitin] (cyclo(G[Nva(3-Et)]G[X1]N[Hyp][Ile(4R-OH,5-OH)][X4]); thioether 4-8)",1170 ± 370 nM,240 ± 50 nM,,
CC[C@H](C)[C@@H]1NC(=O)CNC(=O)[C@@H]2Cc3c([nH]c4ccccc34)[S+]([O-])C[C@H](NC(=O)CNC1=O)C(=O)N[C@@H](CC(=O)O)C(=O)N1C[C@H](O)C[C@H]1C(=O)N[C@@H]([C@@H](C)[C@@H](O)CO)C(=O)N2 (stereo partly shown) [amanin],,,0.3 mg/kg,Ki (calf thymus RNAP II): 5 nM
CC[C@H](C)[C@@H]1NC(=O)CNC(=O)[C@@H]2Cc3c([nH]c4ccccc34)[S+]([O-])C[C@H](NC(=O)CNC1=O)C(=O)N[C@@H](CC(N)=O)C(=O)N1C[C@H](O)C[C@H]1C(=O)N[C@@H]([C@@H](C)[C@@H](O)CO)C(=O)N2 (stereo partly shown) [amaninamide],,,20 mg/kg,Ki (calf thymus RNAP II): 5 nM
CC[C@H](C)[C@@H]1NC(=O)CNC(=O)[C@@H]2Cc3c([nH]c4cc(O)ccc34)[S+]([O-])C[C@H](NC(=O)CNC1=O)C(=O)N[C@@H](CC(N)=O)C(=O)N1C[C@H](O)C[C@H]1C(=O)N[C@@H]([C@@H](C)CC)C(=O)N2 (stereo partly shown) [amanullin],,,>20 mg/kg,Ki (calf thymus RNAP II): 10 nM
CC[C@H](C)[C@@H]1NC(=O)CNC(=O)[C@@H]2Cc3c([nH]c4cc(O)ccc34)[S+]([O-])C[C@H](NC(=O)CNC1=O)C(=O)N[C@@H](CC(=O)O)C(=O)N1CCC[C@H]1C(=O)N[C@@H]([C@@H](C)CC)C(=O)N2 (stereo partly shown) [proamanullin],,,>20 mg/kg,
Herceptin,,,,IC50 (SK-BR-3 cells): > 1000 nM
amanullinic acid,,,>20 mg/kg,
β-amanitin,,,0.5 mg/kg,Ki (calf thymus RNAP II; read-out: Ki): 2.5 nM
γ-amanitin,,,0.2 mg/kg,Ki (calf thymus RNAP II; read-out: Ki): 5 nM
ε-amanitin,,,0.3 to 0.6 mg/kg,

# Reference: US20260258086A1 (priority 2021, published 2026)
